How the values were obtained:
[1] = target: T1, TbVCL2 (Trypanosoma brucei, UniProt Q389H3); experiment: two-electrode voltage clamp, Xenopus oocytes; type: cell-based
T1 construct: gene Tb10.26.0220; full-length, untagged cRNA in Xenopus laevis oocytes; dimer expected (CLC family), heterodimer with endogenous Xenopus CLC not excluded
T1 sequence (Q389H3 1-941): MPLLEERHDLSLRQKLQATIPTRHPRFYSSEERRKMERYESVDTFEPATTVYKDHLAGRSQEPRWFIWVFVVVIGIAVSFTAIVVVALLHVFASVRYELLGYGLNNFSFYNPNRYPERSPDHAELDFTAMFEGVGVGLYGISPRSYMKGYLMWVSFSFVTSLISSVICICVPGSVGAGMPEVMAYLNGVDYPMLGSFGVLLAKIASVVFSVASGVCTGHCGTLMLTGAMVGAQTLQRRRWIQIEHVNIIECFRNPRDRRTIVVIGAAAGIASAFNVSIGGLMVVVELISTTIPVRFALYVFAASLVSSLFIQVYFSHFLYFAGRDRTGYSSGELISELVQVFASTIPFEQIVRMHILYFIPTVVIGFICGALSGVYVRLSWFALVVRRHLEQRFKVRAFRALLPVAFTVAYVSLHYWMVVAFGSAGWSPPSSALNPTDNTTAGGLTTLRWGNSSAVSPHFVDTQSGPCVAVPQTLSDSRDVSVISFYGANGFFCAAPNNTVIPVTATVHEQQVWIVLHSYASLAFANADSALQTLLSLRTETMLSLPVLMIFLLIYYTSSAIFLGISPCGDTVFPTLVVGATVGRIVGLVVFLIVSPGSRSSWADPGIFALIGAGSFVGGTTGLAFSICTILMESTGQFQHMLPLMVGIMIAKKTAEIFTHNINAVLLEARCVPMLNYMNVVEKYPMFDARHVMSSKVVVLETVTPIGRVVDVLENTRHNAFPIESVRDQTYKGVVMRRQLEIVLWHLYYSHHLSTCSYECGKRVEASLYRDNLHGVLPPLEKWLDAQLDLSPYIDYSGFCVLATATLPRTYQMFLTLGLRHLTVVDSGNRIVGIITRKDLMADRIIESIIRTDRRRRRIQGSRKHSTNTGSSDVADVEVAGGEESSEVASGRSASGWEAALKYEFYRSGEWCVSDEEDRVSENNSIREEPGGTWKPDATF

[2] = target: T2, TbVCL3 (Trypanosoma brucei, UniProt Q381B7); experiment: two-electrode voltage clamp, Xenopus oocytes; type: cell-based
T2 construct: gene Tb11.01.8420; full-length, untagged cRNA in Xenopus laevis oocytes; dimer expected (CLC family), heterodimer with endogenous Xenopus CLC not excluded
T2 sequence (Q381B7 1-918): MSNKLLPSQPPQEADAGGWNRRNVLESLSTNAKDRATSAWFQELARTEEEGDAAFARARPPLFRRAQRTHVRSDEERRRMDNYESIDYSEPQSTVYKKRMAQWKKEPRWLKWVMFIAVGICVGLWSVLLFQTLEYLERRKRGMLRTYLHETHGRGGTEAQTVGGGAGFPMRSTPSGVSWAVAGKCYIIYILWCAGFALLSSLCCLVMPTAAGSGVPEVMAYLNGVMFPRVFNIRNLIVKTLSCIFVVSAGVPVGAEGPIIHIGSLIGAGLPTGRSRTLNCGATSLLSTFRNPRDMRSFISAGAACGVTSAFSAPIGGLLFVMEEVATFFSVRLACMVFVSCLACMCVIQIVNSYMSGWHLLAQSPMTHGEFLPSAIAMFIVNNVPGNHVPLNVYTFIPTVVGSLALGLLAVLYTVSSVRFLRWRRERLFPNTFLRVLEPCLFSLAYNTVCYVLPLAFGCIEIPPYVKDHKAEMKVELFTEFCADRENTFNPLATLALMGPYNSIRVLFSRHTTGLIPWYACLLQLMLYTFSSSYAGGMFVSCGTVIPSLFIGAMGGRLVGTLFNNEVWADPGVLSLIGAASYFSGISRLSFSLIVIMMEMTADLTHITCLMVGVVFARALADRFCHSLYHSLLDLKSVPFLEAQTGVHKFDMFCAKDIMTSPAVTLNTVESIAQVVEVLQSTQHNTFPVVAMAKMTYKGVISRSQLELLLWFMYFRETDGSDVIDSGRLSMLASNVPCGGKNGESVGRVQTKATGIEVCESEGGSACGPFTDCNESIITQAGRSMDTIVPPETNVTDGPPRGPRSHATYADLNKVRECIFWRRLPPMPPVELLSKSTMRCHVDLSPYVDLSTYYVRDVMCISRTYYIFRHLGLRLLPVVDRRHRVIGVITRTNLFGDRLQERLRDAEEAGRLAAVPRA
Description: two-electrode voltage clamp, Xenopus oocytes on TbVCL3 | TbVCL3-expressing oocytes ...

## O=S(=O)(O)c1cc(N=C=S)ccc1/C=C/c1ccc(N=C=S)cc1S(=O)(=O)O [DIDS, 4,4-diisothiocyanostilbene-2,2-disulphonate]
[1]
  IC50: 30 ± 3 µM
[2]
  IC50: 56 ± 18 µM

Source: paper PMC5731698, “Identification and characterization of the three members of the CLC family of anion transport proteins in Trypanosoma brucei” (PLoS ONE, 2017)
